Source: patent US20260285850A1, “SUBSTITUTED OXAZOLIDINONES AND IMIDAZOLINONES AS HERBICIDES” (FMC CORPORATION, priority 2023, published 2026)

Key:
Format in all cases: in vivo
[1] = tested on: palmer (palmer amaranth, palmer pigweed, Amaranthus palmeri); experiment: Test A preemergence soil spray, visual injury rating 0-100; conditions: 10 days, 0 = no effect, 100 = complete control
Procedure, shortened: (§1)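 Grow plants in loam soil blended with sand. Apply formulated compound (non-phytotoxic solvent, surfactant) as a directed soil spray before emergence, or to plants at the one- to two-leaf stage after emergence. Hold in greenhouse 10 days, then rate injury visually versus untreated controls on a 0-100 scale.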

[2] = tested on: kochia (Bassia scoparia); experiment: as above; conditions: 10 days, 0 = no effect, 100 = complete control
Procedure, shortened: as §1

[3] = tested on: corn (Zea mays); experiment: as above; conditions: 10 days, 0 = no effect, 100 = complete control
Procedure, shortened: as §1

[4] = tested on: soybean (Glycine max); experiment: as above; conditions: 10 days, 0 = no effect, 100 = complete control
Procedure, shortened: as §1

[5] = tested on: ragweed (common ragweed, Ambrosia artemisiifolia); experiment: as above; conditions: 10 days, 0 = no effect, 100 = complete control
Procedure, shortened: as §1

[6] = tested on: barnyardgrass (Echinochloa crus-galli); experiment: as above; conditions: 10 days, 0 = no effect, 100 = complete control
Procedure, shortened: as §1

[7] = tested on: wheat (Triticum aestivum); experiment: as above; conditions: 10 days, 0 = no effect, 100 = complete control
Procedure, shortened: as §1

[8] = tested on: oat, wild (wild oat, Avena fatua); experiment: as above; conditions: 10 days, 0 = no effect, 100 = complete control
Procedure, shortened: as §1

[9] = tested on: blackgrass (Alopecurus myosuroides); experiment: as above; conditions: 10 days, 0 = no effect, 100 = complete control
Procedure, shortened: as §1

[10] = tested on: ryegrass, Italian (italian ryegrass, Lolium multiflorum); experiment: as above; conditions: 10 days, 0 = no effect, 100 = complete control
Procedure, shortened: as §1

[11] = tested on: rice (Oryza sativa); experiment: Test B flooded paddy test, visual plant response rating 0-100; conditions: 250 g ai/ha, Flood, applied to paddy water, evaluated after 13 days
Procedure, shortened: (§2)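 Each species was raised to two leaves before flooding to a 3 cm depth and dosing the water with compound. Injury was assessed by eye after 13 days under greenhouse conditions.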

[12] = tested on: sedge, umbrella (small-flower umbrella sedge, Cyperus difformis); experiment: as above; conditions: 250 g ai/ha, Flood, applied to paddy water, evaluated after 13 days
Procedure, shortened: as §2

[13] = tested on: barnyardgrass (Echinochloa crusgalli); experiment: as above; conditions: 250 g ai/ha, Flood, applied to paddy water, evaluated after 13 days
Procedure, shortened: as §2

[14] = tested on: ducksalad (Heteranthera limosa); experiment: as above; conditions: 250 g ai/ha, Flood, applied to paddy water, evaluated after 13 days
Procedure, shortened: as §2

[15] = tested on: palmer (palmer amaranth, palmer pigweed, Amaranthus palmeri); experiment: Test A postemergence application, visual injury rating 0-100; conditions: Postemergence
Procedure, shortened: as §1

[16] = tested on: kochia (Bassia scoparia); experiment: as above; conditions: Postemergence
Procedure, shortened: as §1

[17] = tested on: corn (Zea mays); experiment: as above; conditions: Postemergence
Procedure, shortened: as §1

[18] = tested on: galium (catchweed bedstraw, Galium aparine); experiment: as above; conditions: Postemergence
Procedure, shortened: as §1

[19] = tested on: soybean (Glycine max); experiment: as above; conditions: Postemergence
Procedure, shortened: as §1

[20] = tested on: ragweed (common ragweed, Ambrosia artemisiifolia); experiment: as above; conditions: Postemergence
Procedure, shortened: as §1

[21] = tested on: horseweed (Erigeron canadensis); experiment: as above; conditions: Postemergence
Procedure, shortened: as §1

[22] = tested on: barnyardgrass (Echinochloa crus-galli); experiment: as above; conditions: Postemergence
Procedure, shortened: as §1

[23] = tested on: wheat (Triticum aestivum); experiment: as above; conditions: Postemergence
Procedure, shortened: as §1

[24] = tested on: oat, wild (wild oat, Avena fatua); experiment: as above; conditions: Postemergence
Procedure, shortened: as §1

[25] = tested on: blackgrass (Alopecurus myosuroides); experiment: as above; conditions: Postemergence
Procedure, shortened: as §1

[26] = tested on: ryegrass, Italian (italian ryegrass, Lolium multiflorum); experiment: as above; conditions: Postemergence
Procedure, shortened: as §1

[27] = 31 g ai/ha, greenhouse 10 days, 0 no effect, 100 complete control
[28] = 125 g ai/ha, 10 days, 0 is no effect, 100 is complete control

SMILES: CC1(C(=O)NC2CC=C(C(=O)O)C2)CN(c2cc(Cl)cc(Cl)c2)C(=O)O1 (stereo not drawn) [Compound 72]
- Amaranth, Palmer plant response rating (0-100) ([1]; 31 g ai/ha): 90
- Amaranth, Palmer plant response rating (0 to 100 scale) ([1]; 125 g ai/ha): 100
- Kochia plant response rating (0-100) ([2]; 31 g ai/ha): 80
- Kochia plant response rating (0 to 100 scale) ([2]; 125 g ai/ha): 90
- Corn plant response rating (0-100) ([3]; 31 g ai/ha): 0
- Corn plant response rating (0 to 100 scale) ([3]; 125 g ai/ha): 60
- Soybean plant response rating (0-100) ([4]; 31 g ai/ha): 0
- Soybean plant response rating (0 to 100 scale) ([4]; 125 g ai/ha): 80
- Ragweed plant response rating (0-100) ([5]; 31 g ai/ha): 0
- Ragweed plant response rating (0 to 100 scale) ([5]; 125 g ai/ha): 40
- Barnyardgrass plant response rating (0-100) ([6]; 31 g ai/ha): 60
- Barnyardgrass plant response rating (0 to 100 scale) ([6]; 125 g ai/ha): 90
- Wheat plant response rating (0-100) ([7]; 31 g ai/ha): 40
- Wheat plant response rating (0 to 100 scale) ([7]; 125 g ai/ha): 80
- Oat, Wild plant response rating (0-100) ([8]; 31 g ai/ha): 10
- Oat, Wild plant response rating (0 to 100 scale) ([8]; 125 g ai/ha): 40
- Blackgrass plant response rating (0-100) ([9]; 31 g ai/ha): 0
- Blackgrass plant response rating (0 to 100 scale) ([9]; 125 g ai/ha): 30
- Ryegrass, Italian plant response rating (0-100) ([10]; 31 g ai/ha): 40
- Ryegrass, Italian plant response rating (0 to 100 scale) ([10]; 125 g ai/ha): 80
- Plant response rating, Rice (0 to 100 scale, 0 is no effect and 100 is complete control) [11]: 85
- Plant response rating, Sedge, Umbrella (0 to 100 scale, 0 is no effect and 100 is complete control) [12]: 98
- Plant response rating, Barnyardgrass (0 to 100 scale, 0 is no effect and 100 is complete control) [13]: 55
- Plant response rating, Ducksalad (0 to 100 scale, 0 is no effect and 100 is complete control) [14]: 75
- Amaranth, Palmer / Pigweed, Palmer plant response rating (0 to 100 scale) [15, 27]: 90
- Amaranth, Palmer / Pigweed, Palmer plant response rating (0 to 100 scale) [15, 28]: 90
- Kochia plant response rating (0 to 100 scale) [16, 27]: 80
- Kochia plant response rating (0 to 100 scale) [16, 28]: 80
- Corn plant response rating (0 to 100 scale) [17, 27]: 100
- Corn plant response rating (0 to 100 scale) [17, 28]: 100
- Galium plant response rating (0 to 100 scale) [18, 27]: 80
- Galium plant response rating (0 to 100 scale) [18, 28]: 80
- Soybean plant response rating (0 to 100 scale) [19, 27]: 80
- Soybean plant response rating (0 to 100 scale) [19, 28]: 90
- Ragweed plant response rating (0 to 100 scale) [20, 27]: 50
- Ragweed plant response rating (0 to 100 scale) [20, 28]: 70
- Horseweed plant response rating (0 to 100 scale) [21, 27]: 70
- Horseweed plant response rating (0 to 100 scale) [21, 28]: 80
- Barnyardgrass plant response rating (0 to 100 scale) [22, 27]: 90
- Barnyardgrass plant response rating (0 to 100 scale) [22, 28]: 90
- Wheat plant response rating (0 to 100 scale) [23, 27]: 80
- Wheat plant response rating (0 to 100 scale) [23, 28]: 90
- Oat, Wild plant response rating (0 to 100 scale) [24, 27]: 40
- Oat, Wild plant response rating (0 to 100 scale) [24, 28]: 60
- Blackgrass plant response rating (0 to 100 scale) [25, 27]: 90
- Blackgrass plant response rating (0 to 100 scale) [25, 28]: 90
- Ryegrass, Italian plant response rating (0 to 100 scale) [26, 27]: 70
- Ryegrass, Italian plant response rating (0 to 100 scale) [26, 28]: 70
